Assay results: publication PMC4512978, “Synthesis and evaluation in rats of homologous series of [^18F]-labeled dopamine D2/3 receptor agonists based on the 2-aminomethylchroman scaffold as potential PET tracers” (EJNMMI Research, 2015)

Experiments:
D2/3R [1] = experiment: MicroPET study in rats; format: in vivo, Sprague-Dawley rats; conditions: saline pre-treated rats; peak (45 min post-injection for [^18F]FEt-AMC13 and [^11C]raclopride)
Experimental: Animal experiments were performed by licensed investigators in compliance with the Law on Animal Experiments of The Netherlands. The protocol was approved by the Committee on Animal Ethics of the University of Groningen. Young male (10–12 weeks of age, 300–350 g body weight) Sprague-Dawley rats (Harlan, the Netherlands) were used for all experiments. The rats were maintained at a 12-h light/12-h dark regime and were fed standard laboratory chow ad libitum.
Distribution of the radiotracers was studied in rats pre-treated, at random, with physiological saline (controls) or raclopride tartrate (1 mg/kg calculated per raclopride base, equivalent to 2.9 μmol/kg). Saline and raclopride were administered intravenously (1 mL/kg injected volume).
An additional group of saline pre-treated rats, injected with [^11C]raclopride, served as positive controls for D2/3R-specific brain uptake.
Two rats were scanned simultaneously. Before all manipulations, animals were anesthetized with a mixture of isoflurane/air (inhalation anesthesia, 5 % ratio during induction, 2 % at maintenance). Cannulae were placed into the rats’ left femoral arteries and veins; the operation took 45–50 min. The rats were positioned supine inside the camera (Focus 220 microPET, Siemens-Concorde), one above the other with their heads in the camera’s field of view. A 515-s transmission scan with a Co-57 point source was performed. Tracer was injected through the venous cannula as a slow bolus (1 mL volume, 60 s long) using an infusion pump. The second (upper) animal was injected 16 min after the first (lower).
PET acquisition was started during the injection of radioactivity in the first rat. A 106-min long (76 min long in the case of [^11C]raclopride) list-mode acquisition protocol was used for the scan.
List-mode data from the 106-min-long and 76-min-long scans were reframed into, respectively, 90-min-long and 60-min-long dynamic sequences of 6 × 10, 4 × 30, 2 × 60, 1 × 120, 1 × 180, 4 × 300, 3 × 600, and (for 90-min-long scans) 2 × 900 s frames. The data were reconstructed per time frame using an iterative reconstruction algorithm (attenuation-weighted 2-dimensional ordered-subset expectation maximization, provided by Siemens; 4 iterations, 16 subsets; zoom factor 2). Datasets were fully corrected for random coincidences, scatter, and attenuation. Data from the transmission scan were used for attenuation correction. The final datasets consisted of 95 slices, with a slice thickness of 0.8 mm and an in-plane image matrix size of 128 × 128 and pixel size of 0.47 × 0.47 mm.
Reconstructed images were analyzed with Inveon 2.0 software (Siemens Medical Solutions, USA, Inc). Regions of interest (ROIs) were drawn manually on a T2-weighted MRI template of rat brain around the striatum, brainstem, cortex, hippocampus, hypothalamus, thalamus, olfactory bulbs, and cerebellum around the whole brain and around the pituitary gland. The MRI template was co-registered with the PET scan by image fusion. The time-activity curves (TAC) per ROI were determined in Bq/cm^3 units and converted into standardized uptake values (SUVs).
(§1) Degree of D2/3R-specific binding of the tracers was characterized by BPND (as given above) or the specific binding ratio (SBR) given as target region activity/cerebellar activity - 1. Both were calculated under control conditions and in response to the raclopride challenge.

[2] = test system: D2/3R against serotonin-1A and adrenergic α1 receptors; set-up: method as in PMID 9435894; conditions: cited from earlier work
D2/3R [3] = conditions: cited from earlier work; for displacement of apparent D2/3R-specific striatal uptake: Sprague-Dawley rats, 1–2 mg/kg (2.9–5.8 μmol/kg) raclopride
D2/3R [4] = experiment: In vitro autoradiography of rat brain slices; format: binding, Sprague-Dawley rats; conditions: for Striatal SBR % change relative to control condition, Raclopride / Striatal SBR, Raclopride: with 10 μM raclopride; for Striatal SBR % change relative to control condition, GTP / Striatal SBR, GTP: with 100 μM GTP
Experimental: In vitro autoradiography assay was performed as previously described. Frozen brains of young (10–12 weeks of age; 300–350 g body weight) male Sprague-Dawley rats (Harlan, Netherlands) were cut at −12 °C into sagittal slices 20 μm thick using a Leica microtome, and the slices were thaw-mounted on Superfrost (70 × 22 mm, Fischer) adhesive slides. Only slices containing both striatal and cerebellar regions were used. The slides with slices mounted them were allowed to dry, then put into storage boxes with silica gel bags and stored at −80 °C.
On the day of the experiment (within 1 week from the preparation of the slices), the slides were taken out of storage and allowed to come to room temperature for 5–10 min. Then, 1–1.2 mL of incubation buffer (50 mM Tris-HCl, 5 mM KCl, 2 mM CaCl2, 2 mM MgCl2, 120 mM NaCl, pH 7.4 25 °C) was applied per slide, and the slides were pre-incubated for 15 min at room temperature. The buffer was then removed, and the slides were placed into staining jars containing radioligand solution (concentration range of 0.1–10 nM) in the incubation buffer with or without 10 μM raclopride (D2/3 antagonist) or 100 μM guanosine-5'-triphosphate sodium salt (GTP, stimulator of G-protein uncoupling from the receptors). After 35 min of incubation at 37 °C, slides were washed once with ice-cold incubation buffer (3.5 min) and dipped for 30 s into ice-cold distilled water to remove buffer salts.
After drying the slides in a stream of room-temperature air, they were exposed on phosphor storage screens for 6–10 h. The storage screens were read by Cyclone Storage Phosphor System (Packard Instruments Co.). Quantification of plate readings was done with OptiQuant software (version 3.00, Packard Instruments Co.).
as §1

[5] = LogD measurement (n-octanol/phosphate buffer); format: physicochemical; conditions: n-octanol / 1 M phosphate buffer pH 7.4
Experimental: LogD of the tracers was measured using the radioactivity remaining on the HLB SPE cartridges after their elution with ethanol during the tracer formulation procedure (see above). The cartridge was dried with nitrogen for 5 min and eluted with at least 1.5 mL n-octanol. A 500 μL portion of octanol eluate was mixed with 500 μL of 1 M phosphate buffer (pH 7.4) and vigorously vortexed for 5 min. The mixture was then centrifuged at 17,000g for 10 min and 3 × 100 μL aliquots of organic and aqueous phase were loaded into a gamma-counter for radioactivity measurement. To correct for possible presence of radioactive impurities in the tracer, aliquots of organic and aqueous phases were later analyzed by radio-TLC, and the counts obtained from the gamma-counter were corrected according to the percentage of impurities found in aqueous and organic phases. LogD was calculated with the following formula: LogD=lgCPMorg×Xorgtracer/CPMaq×Xaqtracer,
where CPMorg is the mean radioactivity of the organic aliquots, Xorgtracer is the mean percentage of radioactivity accounting for intact tracer in organic aliquots (as determined from radio-TLC), and CPMaq and Xaqtracer are the corresponding values for the aqueous phase.
For each tracer batch used for logD determination, the experiment was performed in duplicate. LogD values are means calculated from at least two independent experiments.

D2/3R [6] = experiment: Kinetic analysis of PET data (1TCM, 2TCM, Logan, SRTM); format: in vivo, Sprague-Dawley rats; conditions: 1 mg/kg raclopride, measured with [^18F]FEt-AMC13
Experimental: Kinetic analysis is described using the nomenclature proposed by Innis et al.. ROI TACs of [^18F]FEt-AMC13 were analyzed with one-tissue and two-tissue compartmental models of reversible binding (1TCM and 2TCM, respectively) to obtain individual rate constants. From these, the regional distribution volumes (VT) were calculated and compared to those obtained with Logan graphical analysis. Binding potentials (BPND) were calculated from the distribution ratios as VT (target) / VT (cerebellum) – 1, or estimated with the simplified reference tissue model (SRTM) using the cerebellum as reference region.
Metabolite-corrected plasma-derived arterial input function and whole blood time-activity curve were used for Logan, 1TCM, and 2TCM analyses. Fractional cerebral blood volume was set to 3.6 % [27]. For one rat in the raclopride-treated group, no input curves could be obtained; therefore, its PET data were only analyzed with SRTM.
as §1

Row | SMILES | Striatal SBR % change relative to control condition, Raclopride (D2/3R [4]) [%] | Striatal SBR, Raclopride (D2/3R [4]) | Striatal SBR % change relative to control condition, GTP (D2/3R [4]) [%] | Striatal SBR, GTP (D2/3R [4]) | logD [5] | other results
1 | CCN1CCC[C@H]1CNC(=O)c1c(O)c(Cl)cc(Cl)c1O[11CH3] (racemic) [[^11C]raclopride, reference compound] |  |  |  |  |  | Striatum-to-cerebellum uptake ratio (PET) (D2/3R [1]): 7.45 ± 1.60
2 | Oc1ccc2c(c1)O[C@@H](CNCc1ccccc1)CC2 [(R)-2-[(benzylamino)methyl]chroman-7-ol] |  |  |  |  |  | selectivity [2]: selective for D2/3R against serotonin-1A and adrenergic α1 receptors
3 | CCCN1CCc2cc(O[11CH3])cc3c2C1Cc1ccc(O)c(O)c1-3 (stereo not shown) [[^11C]MNPA] |  |  |  |  |  | displacement of apparent D2/3R-specific striatal uptake (D2/3R [3]): > 90%
4 | CC[11CH2]N1CCO[C@@H]2c3cc(O)ccc3CCC21 (stereo partly shown) [[^11C]PHNO] |  |  |  |  |  | displacement of apparent D2/3R-specific uptake (D2/3R [3]; 0.2 mg/kg (0.58 μmol/kg) raclopride): over 80%; displacement of apparent D2/3R-specific striatal uptake (D2/3R [3]): > 90%
5 | CCCN(CCC[18F])C1CCc2c(O)cccc2C1 (stereo not shown) [[^18F]5-OH-FPPAT] |  |  |  |  |  | striatum-to-cerebellum ratio (D2/3R [3]; rats): 2
6 | Oc1ccc2c(c1)O[C@@H](CNCCN1CCN(c3ccc(OCCCC[18F])cc3)CC1)CC2 [[^18F]FBu-AMC15] | −64 | 0.25 ± 0.23 | −67 | 0.23 ± 0.23 | 2.71 ± 0.07 | 
7 | Oc1ccc2c(c1)O[C@@H](CNCc1ccc(OCCC[18F])cc1)CC2 [[^18F]FPr-AMC13] | −80 | 0.41 ± 0.23 | −80 | 0.42 ± 0.23 | 1.98 ± 0.08 | 
8 | Oc1ccc2c(c1)O[C@@H](CNCCN1CCN(c3ccc(OCCC[18F])cc3)CC1)CC2 [[^18F]FPr-AMC15] | −61 | 0.39 ± 0.22 | −63 | 0.37 ± 0.24 | 2.39 ± 0.001 | 
9 | CCN1CCC[C@H]1CNC(=O)c1c(O)c(Cl)cc(Cl)c1OC [raclopride, reference compound] |  |  |  |  |  | raclopride-induced D2/3R occupancy (modified Lassen plot) (D2/3R [6]): 20–25%
